In publication PMC11546339, “Conformational Plasticity Enhances the Brain Penetration of a Metabolically Stable, Dual-Functional Opioid-Peptide CycloAnt” (International Journal of Molecular Sciences, 2024):
Where two headings read alike, the source gives them in different places. Where a SMILES comes first, the peptide text is derived from it. Bridges are numbered along the chain shown (N, C = ends). [ ]: non-standard residue; d: D form. 2Abz = Nc1ccccc1C(=O)O; Dap = NC[C@H](N)C(=O)O

Legend:
[1] = Stability in mouse serum; assay type: in vitro ADME; conditions: 37 °C, read-out: percentage of CycloAnt remaining in mouse serum
Procedure: Proteolytic instability is a major hurdle limiting the development of peptide drug. As blood is a major source of proteases that degrade peptides, we evaluated the stability of CycloAnt in mouse serum. CycloAnt at a final concentration of 20 µM was incubated with mouse serum (SigmaAldrich) at 37 °C for 8 h. At 0, 15, 30, 60, 120, 240, and 480 min, the incubation was terminated by adding 2 volumes of ice-cold acetonitrile to precipitate the proteins in the sample. After centrifugation at 10,000 rpm, supernatant was collected. The processed sample was analyzed by liquid chromatography tandem mass spectrometry (LC-MS/MS). The percentage of CycloAnt remaining at each time point was calculated (Figure 1).
Stability in mouse serum. CycloAnt was dissolved in pH 7.2 phosphate buffer saline (PBS). A total of 175 µL of CycloAnt at a final concentration of 20 µM was mixed with 2.625 mL of 100% mouse serum (SigmaAldrich) and incubated at 37 °C. The mixture was analyzed over a time course of 8 h. At the time points of 0, 15, 30, 60, 120, 240, and 480 min, 150 µL of sample were withdrawal and the reaction was terminated with 300 μL of ice-cold acetonitrile containing internal standard (IS, Tyr-[D-Lys-Phe-Tyr-Gly] at 200 ng/mL). The mixture was centrifuged at 10,000 rpm at 4 °C for 10 min. […] The percentage of peptide remaining at each time point was calculated relative to 0 min. […]

[2] = Pharmacokinetic study in mice (plasma and brain); assay type: in vivo; conditions: male, C57BL/6, mouse, ip, 3 mg/kg i.p.
Procedure: To evaluate the amount of CycloAnt in mouse brain, we performed a pharmacokinetic experiment in mice. Mice were given CycloAnt at 3 mg/kg i.p.; blood was collected at 0, 15, 30, and 60 min post-injection. Immediately after the blood was collected, the mouse was intracardially perfused through the left ventricle with 20 mL PBS. The whole brain was isolated and homogenized. The blood and brain samples were processed by protein precipitation and centrifugation. The supernatants of the blood and brain samples were collected and analyzed by LC-MS/MS.
Pharmacokinetic study. Standard curve. Following euthanasia, mouse blood was collected in a heparin anticoagulation tube and the whole brain was isolated. For determination of the standard curve in mouse blood, 300 μL of blood was spiked with 0, 10, 100, and 1000 ng of CycloAnt, respectively, followed by adding 600 μL of ice-cold acetonitrile containing the internal standard (IS, Tyr-[D-Lys-Phe-Tyr-Gly]) at 200 ng/mL. The blood samples were thoroughly mixed and centrifuged at 10,000 rpm at 4 °C for 10 min. An aliquot of 600 μL of supernatant from each sample was collected and dried under vacuum, followed by reconstitution of the dried blood sample in 100 μL 20% acetonitrile. The reconstituted sample was centrifuged at 13,000 rpm, 4 °C for 5 min to remove the lipid content. The supernatant was collected for LC-MS/MS analysis. For mouse brain, the brain was homogenized with 250 μL of PBS at 0 °C, followed by adding 1 mL of ice-cold acetonitrile containing the IS. The brain sample was then spiked with 0, 10, 100, and 1000 ng of CycloAnt, respectively, and thoroughly mixed and centrifuged at 10,000 rpm, 4 °C for 10 min. An aliquot of 1000 μL of supernatant was collected and dried under vacuum, followed by adding 100 μL 20% acetonitrile to reconstitute the dried brain sample. The reconstituted sample was mixed and centrifugating at 13,000 rpm, 4 °C for 5 min to remove the lipid content. The supernatant was collected and analyzed by LC-MS/MS.
The peak areas of CycloAnt and IS were recorded; the relative measured concentration of CycloAnt was calculated using the ratio of CycloAnt peak area vs. IS peak area. A standard concentration curve (Figure S8) was then generated for CycloAnt in the matrix of blood and brain, respectively.
Pharmacokinetics. Eight-week-old male C57BL/6 mice (Jackson Laboratories, Bar Harbor, ME, USA) were used for pharmacokinetic studies. CycloAnt was given to mice (n = 2) i.p. at a dose of 3 mg/kg. At 15, 30, and 60 min post-administration, mouse blood was collected in a heparin anticoagulation tube. After blood collection, the mouse was intracardially perfused through the left ventricle with 20 mL PBS, followed by isolation of the whole brain. To process the blood sample, 300 μL blood was mixed with 600 μL of ice-cold acetonitrile containing the IS at 200 ng/mL, followed by centrifugation at 10,000 rpm, 4 °C for 10 min. To process the brain sample, 250 μL of ice-cold PBS was added to the isolated brain and homogenized at 0 °C, followed by mixing with 1 mL of ice-cold acetonitrile containing the IS. The brain sample was then centrifuged at 10,000 rpm, 4 °C for 10 min. The supernatants were collected from the blood sample (600 μL) and the brain sample (1 mL), respectively, and dried under vacuum. The blood and brain samples were reconstituted in 100 μL of 20% acetonitrile. The samples were then centrifuged at 13,000 rpm, 4 °C for 5 min to remove the lipid content. The supernatants were collected from the blood and brain samples and analyzed by LC-MS/MS.

Compound: C[C@@H](O)[C@@H]1NC(=O)[C@H](CNC(=O)c2ccccc2N)NC(=O)[C@H](NC(=O)[C@@H](N)Cc2ccc(O)cc2)CCCCNC(=O)CNC1=O [CycloAnt] (H-Y[dK][Dap](2Abz)TG; lactam 2-C)
- remaining at 8 h, 20 µM [1]: 82.3%
- Tmax ([2]; brain, read-out: time of maximum concentration in brain (converted)): 15 min
- Cmax ([2]; assuming density of brain tissue 1 g/mL, read-out: maximum concentration in brain (Cmax,br)): 70 nM
- Cmax ([2]; perfused brain, read-out: maximum concentration in brain (Cmax,br)): 46 ng/g
- AUC ([2]; plasma, 0-60 min, read-out: AUCbld (plasma) (converted)): 173 ng·h/mL
- Cmax ([2]; plasma, read-out: maximum concentration in mouse plasma (Cmax,pl)): 411 ng/mL
- Tmax ([2]; whole blood, read-out: time of maximum concentration in blood (converted)): 15 min
